Experimental data reported in patent US10414811B2, “Protease-resistant lipidated GLP-1 analogs” (MEDIMMUNE LIMITED, priority 2015, dated 2019).
Like-named read-outs stand apart in the source and are kept apart here. Numbered stars: 1 amine (or outer) side, 2 acyl side, 3 side chain; on linkers, the order of the positions; unused ones are H or OH. Square brackets hold non-standard residues; d marks the D form. Side chains are listed from the residue outwards. Peptide text beside a SMILES is read from it. * marks the point of attachment. γGlu = O=C(O)[C@H](CCC(=O)[*:2])N[*:1]; αMeF = C[C@](N)(Cc1ccccc1)C(=O)O; αMeK = C[C@](N)(CCCCN)C(=O)O; Lauroyl = CCCCCCCCCCCC(=O)*; αMeS = C[C@](N)(CO)C(=O)O; AEEA = NCCOCCOCC(=O)O; Aib = CC(C)(N)C(=O)O

Legend:
Type in all cases: cell-based
[1] = target: T1, human GLP-1 receptor (GLP-1R) (Homo sapiens, UniProt P43220); assay: cAMP assay, human GLP-1R cells
T1 construct: expressed in transfected cells
How it was run: (§1)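 Peptide-stimulated cAMP measured by two-step HTRF after a 30 min room-temperature incubation with receptor-expressing cells (hGLP-1R, hGIPR at 1×10^5 cells/ml; hGCGR at 2×10^5 cells/ml). Duplicate dilutions; EC50 from 4-parameter logistic fit of % Delta F.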

[2] = target: T2, human glucagon receptor (GCGR) (Homo sapiens, UniProt P47871); assay: cAMP assay, human GCGR cells
T2 construct: expressed in transfected cells
How it was run: as §1

[3] = target: T3, human glucose-dependent insulinotropic peptide receptor (GIPR) (Homo sapiens, UniProt P48546); assay: cAMP assay, human GIPR cells
T3 construct: expressed in transfected cells
T3 sequence (P48546 22-466): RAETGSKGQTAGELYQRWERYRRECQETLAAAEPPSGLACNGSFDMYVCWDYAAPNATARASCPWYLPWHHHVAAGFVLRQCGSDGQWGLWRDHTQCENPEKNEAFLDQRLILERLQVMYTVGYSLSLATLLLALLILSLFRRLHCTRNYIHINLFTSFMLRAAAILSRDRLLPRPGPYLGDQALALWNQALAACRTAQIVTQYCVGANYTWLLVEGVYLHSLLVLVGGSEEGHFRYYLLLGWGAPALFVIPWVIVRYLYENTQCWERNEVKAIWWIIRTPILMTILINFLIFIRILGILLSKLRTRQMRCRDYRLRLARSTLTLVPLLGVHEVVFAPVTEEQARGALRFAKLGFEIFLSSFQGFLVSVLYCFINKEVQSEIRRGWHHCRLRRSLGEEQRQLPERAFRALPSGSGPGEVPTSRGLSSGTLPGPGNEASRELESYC
How it was run: as §1

[4] = cAMP assay, first determination (n1), read-out: Primary assay EC50 GLP-1R n1
[5] = cAMP assay, second determination (n2), read-out: Primary assay EC50 GLP-1R n2
[6] = mean of n1 and n2, read-out: Mean pM GLP-1R
[7] = cAMP assay, first determination (n1), read-out: Primary assay EC50 Gluc-R (n1)
[8] = cAMP assay, second determination (n2), read-out: Primary assay EC50 Gluc-R (n2)
[9] = cAMP assay, first determination (n1), read-out: Primary assay EC50 GIP-R (n1)
[10] = cAMP assay, second determination (n2), read-out: Primary assay EC50 GIP-R (n2)
[11] = tris-lipidated peptides, mean of n1 and n2, read-out: Primary assay EC50 Mean pM GLP-1R
[12] = tris-lipidated peptides, replicate n1, read-out: Primary assay EC50 GLP-1R n1
[13] = tris-lipidated peptides, replicate n2, read-out: Primary assay EC50 GLP-1R n2
[14] = tris-lipidated peptides, first replicate, read-out: Primary assay EC50 Gluc-R (n1)
[15] = tris-lipidated peptides, second replicate, read-out: Primary assay EC50 GIP-R (n2)

T1 sequence (P43220 24-463): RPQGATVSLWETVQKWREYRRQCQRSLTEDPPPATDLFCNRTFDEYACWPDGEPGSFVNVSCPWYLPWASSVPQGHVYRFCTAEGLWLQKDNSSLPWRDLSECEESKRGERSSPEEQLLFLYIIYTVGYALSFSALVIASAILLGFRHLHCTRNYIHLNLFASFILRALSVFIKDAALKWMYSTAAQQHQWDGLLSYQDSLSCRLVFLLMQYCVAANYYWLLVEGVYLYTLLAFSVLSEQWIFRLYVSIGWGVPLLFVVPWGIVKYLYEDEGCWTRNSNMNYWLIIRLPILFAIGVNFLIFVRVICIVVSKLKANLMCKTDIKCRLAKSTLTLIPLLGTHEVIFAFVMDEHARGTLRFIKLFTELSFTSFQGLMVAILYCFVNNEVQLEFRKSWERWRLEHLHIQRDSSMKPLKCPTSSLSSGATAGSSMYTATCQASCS
T2 sequence (P47871 26-477): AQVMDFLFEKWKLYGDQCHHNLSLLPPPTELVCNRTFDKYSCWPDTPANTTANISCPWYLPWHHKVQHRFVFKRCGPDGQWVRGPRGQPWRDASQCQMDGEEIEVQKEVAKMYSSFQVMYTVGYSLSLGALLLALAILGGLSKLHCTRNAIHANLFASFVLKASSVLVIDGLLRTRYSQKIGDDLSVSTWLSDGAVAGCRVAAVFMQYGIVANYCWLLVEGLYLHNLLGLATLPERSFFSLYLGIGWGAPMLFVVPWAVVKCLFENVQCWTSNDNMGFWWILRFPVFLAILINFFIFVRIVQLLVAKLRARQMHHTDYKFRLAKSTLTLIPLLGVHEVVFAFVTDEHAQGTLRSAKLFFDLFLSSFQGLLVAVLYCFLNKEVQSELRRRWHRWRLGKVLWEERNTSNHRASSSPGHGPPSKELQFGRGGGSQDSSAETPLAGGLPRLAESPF

Structure (SMILES)	EC50 [1, 4] [pM]	EC50 [1, 5] [pM]	EC50 [1, 6] [pM]	EC50 [2, 7] [nM]	EC50 [2, 8] [nM]	EC50 [3, 9] [nM]	EC50 [3, 10] [nM]	EC50 [1, 11] [pM]	EC50 [1, 12] [pM]	EC50 [1, 13] [pM]	EC50 [2, 14] [nM]	EC50 ([3]; tris-lipidated peptides, first replicate, read-out: Primary assay EC50 GIP-R (n1)) [nM]	EC50 ([2]; tris-lipidated peptides, second replicate, read-out: Primary assay EC50 Gluc-R (n2)) [nM]	EC50 [3, 15] [nM]
CCCCCCCCCCCC(=O)N[C@@H](CCC(=O)NCCOCCOCC(=O)NCCOCCOCC(=O)NCCCC[C@H](NC(=O)[C@H](CCC(=O)O)NC(=O)[C@H](CCCCNC(=O)COCCOCCNC(=O)COCCOCCNC(=O)CC[C@H](NC(=O)CCCCCCCCCCC)C(=O)O)NC(=O)[C@H](Cc1ccc(O)cc1)NC(=O)[C@H](CO)NC(=O)[C@](C)(CO)NC(=O)[C@@H](NC(=O)[C@H](CC(=O)O)NC(=O)[C@H](CO)NC(=O)[C@@H](NC(=O)[C@](C)(Cc1ccccc1)NC(=O)[C@H](CO)NC(=O)CNC(=O)[C@H](CCC(=O)O)NC(=O)C(C)(C)NC(=O)[C@@H](N)Cc1c[nH]cn1)[C@@H](C)O)C(C)C)C(=O)N[C@@H](CCC(=O)O)C(=O)N[C@@H](C)C(=O)N[C@@H](C)C(=O)N[C@@](C)(CCCCN)C(=O)N[C@@H](CCC(=O)O)C(=O)N[C@@H](Cc1ccccc1)C(=O)N[C@H](C(=O)N[C@@H](C)C(=O)N[C@@H](Cc1ccccc1)C(=O)N[C@@H](CCCCNC(=O)COCCOCCNC(=O)COCCOCCNC(=O)CC[C@H](NC(=O)CCCCCCCCCCC)C(=O)O)C(=O)N[C@H](C(=O)N[C@@H](CCC(=O)O)C(=O)NCC(=O)NCC(N)=O)C(C)C)[C@@H](C)CC)C(=O)O [compound 483] (H-H[Aib]EGS[αMeF]TSDV[αMeS]SYK([AEEA-AEEA-γGlu-Lauroyl])EK([AEEA-AEEA-γGlu-Lauroyl])EAA[αMeK]EFIAFK([AEEA-AEEA-γGlu-Lauroyl])VEGG-NH2; N-terminus assumed)	–	–	–	–	–	–	–	244	229	258	≥ 19.6	≥ 19.6	–	–
CCCCCCCCCCCCCCCC(=O)N[C@@H](CCC(=O)NCCCC[C@H](NC(=O)[C@H](CCCNC(=N)N)NC(=O)CNC(=O)[C@H](CCCCN)NC(=O)[C@@H](NC(=O)[C@H](CC(C)C)NC(=O)[C@H](Cc1c[nH]c2ccccc12)NC(=O)[C@H](C)NC(=O)[C@@H](NC(=O)[C@H](Cc1ccccc1)NC(=O)[C@H](CCC(=O)O)NC(=O)[C@H](CCCCN)NC(=O)[C@H](C)NC(=O)[C@H](C)NC(=O)[C@H](CCC(N)=O)NC(=O)CNC(=O)[C@H](CCC(=O)O)NC(=O)[C@H](CC(C)C)NC(=O)[C@H](Cc1ccc(O)cc1)NC(=O)[C@H](CO)NC(=O)[C@H](CO)NC(=O)[C@@H](NC(=O)[C@H](CC(=O)O)NC(=O)[C@H](CO)NC(=O)[C@@H](NC(=O)[C@H](Cc1ccccc1)NC(=O)[C@@H](NC(=O)CNC(=O)[C@H](CCC(=O)O)NC(=O)C(C)(C)NC(=O)[C@@H](N)Cc1c[nH]cn1)[C@@H](C)O)[C@@H](C)O)C(C)C)[C@@H](C)CC)C(C)C)C(N)=O)C(=O)O [compound 5]	7.5	5.5	6.5	≥ 81	≥ 81	≥ 81	≥ 81	–	–	–	–	–	–	–
CCCCCCCCCCCC(=O)N[C@@H](CCC(=O)NCCOCCOCC(=O)NCCOCCOCC(=O)NCCCC[C@H](NC(=O)CNC(=O)[C@H](CCC(=O)O)NC(=O)[C@H](CCCCNC(=O)COCCOCCNC(=O)COCCOCCNC(=O)CC[C@H](NC(=O)CCCCCCCCCCC)C(=O)O)NC(=O)[C@H](Cc1ccc(O)cc1)NC(=O)[C@H](CO)NC(=O)[C@](C)(CO)NC(=O)[C@@H](NC(=O)[C@H](CC(=O)O)NC(=O)[C@H](CO)NC(=O)[C@@H](NC(=O)[C@](C)(Cc1ccccc1)NC(=O)[C@H](CO)NC(=O)CNC(=O)[C@H](CCC(=O)O)NC(=O)C(C)(C)NC(=O)[C@@H](N)Cc1c[nH]cn1)[C@@H](C)O)C(C)C)C(=O)N[C@@H](C)C(=O)N[C@@H](C)C(=O)N[C@@](C)(CCCCN)C(=O)N[C@@H](CCC(=O)O)C(=O)N[C@@H](Cc1ccccc1)C(=O)N[C@H](C(=O)N[C@@H](CCCCNC(=O)COCCOCCNC(=O)COCCOCCNC(=O)CC[C@H](NC(=O)CCCCCCCCCCC)C(=O)O)C(=O)N[C@@H](Cc1ccccc1)C(=O)N[C@H](C(=O)N[C@H](C(=O)N[C@@H](CCC(=O)O)C(=O)NCC(=O)NCC(N)=O)C(C)C)C(C)C)[C@@H](C)CC)C(=O)O [compound 452] (H-H[Aib]EGS[αMeF]TSDV[αMeS]SYK([AEEA-AEEA-γGlu-Lauroyl])EGK([AEEA-AEEA-γGlu-Lauroyl])AA[αMeK]EFIK([AEEA-AEEA-γGlu-Lauroyl])FVVEGG-NH2; N-terminus assumed)	–	–	–	–	–	–	–	80.9	85.7	76.1	–	–	19.7	19.7
CCCCCCCCCCCC(=O)N[C@@H](CCC(=O)NCCOCCOCC(=O)NCCOCCOCC(=O)NCCCC[C@H](NC(=O)[C@H](CCC(=O)O)NC(=O)[C@H](CC(C)C)NC(=O)[C@H](CCCCNC(=O)COCCOCCNC(=O)COCCOCCNC(=O)CC[C@H](NC(=O)CCCCCCCCCCC)C(=O)O)NC(=O)[C@H](CO)NC(=O)[C@](C)(CO)NC(=O)[C@@H](NC(=O)[C@H](CC(=O)O)NC(=O)[C@H](CO)NC(=O)[C@@H](NC(=O)[C@](C)(Cc1ccccc1)NC(=O)[C@H](CO)NC(=O)CNC(=O)[C@H](CCC(=O)O)NC(=O)C(C)(C)NC(=O)[C@@H](N)Cc1c[nH]cn1)[C@@H](C)O)C(C)C)C(=O)N[C@@H](CCC(=O)O)C(=O)N[C@@H](C)C(=O)N[C@@H](C)C(=O)N[C@@](C)(CCCCN)C(=O)N[C@@H](CCC(=O)O)C(=O)N[C@@H](Cc1ccccc1)C(=O)N[C@H](C(=O)N[C@@H](C)C(=O)N[C@@H](Cc1ccccc1)C(=O)N[C@@H](CCCCNC(=O)COCCOCCNC(=O)COCCOCCNC(=O)CC[C@H](NC(=O)CCCCCCCCCCC)C(=O)O)C(=O)N[C@H](C(=O)N[C@@H](CCC(=O)O)C(=O)NCC(=O)NCC(N)=O)C(C)C)[C@@H](C)CC)C(=O)O [compound 479] (H-H[Aib]EGS[αMeF]TSDV[αMeS]SK([AEEA-AEEA-γGlu-Lauroyl])LEK([AEEA-AEEA-γGlu-Lauroyl])EAA[αMeK]EFIAFK([AEEA-AEEA-γGlu-Lauroyl])VEGG-NH2)	–	–	–	–	–	–	–	186	132	239	19.8	–	–	19.8

Results, then the molecule that gave them:

EC50 [1, 4] [pM]	EC50 [1, 5] [pM]	EC50 [1, 6] [pM]	EC50 [2, 7] [nM]	EC50 [2, 8] [nM]	EC50 [3, 9] [nM]	EC50 [3, 10] [nM]	EC50 [1, 11] [pM]	EC50 [1, 12] [pM]	EC50 [1, 13] [pM]	EC50 [2, 14] [nM]	EC50 ([3]; tris-lipidated peptides, first replicate, read-out: Primary assay EC50 GIP-R (n1)) [nM]	EC50 ([2]; tris-lipidated peptides, second replicate, read-out: Primary assay EC50 Gluc-R (n2)) [nM]	EC50 [3, 15] [nM]	Structure (SMILES)
160	62	112	≥ 27	≥ 27	≥ 27	≥ 27	–	–	–	–	–	–	–	CC[C@H](C)[C@H](NC(=O)[C@](C)(Cc1ccccc1)NC(=O)[C@H](CCC(=O)O)NC(=O)[C@H](CCCCNC(=O)COCCOCCNC(=O)CCCCCCCCCCCCCCCCC(=O)O)NC(=O)[C@H](C)NC(=O)[C@H](C)NC(=O)[C@H](CCC(=O)O)NC(=O)CNC(=O)[C@H](CCC(=O)O)NC(=O)[C@H](CC(C)C)NC(=O)[C@](C)(Cc1ccccc1)NC(=O)[C@H](CO)NC(=O)[C@](C)(CO)NC(=O)[C@@H](NC(=O)[C@H](CC(=O)O)NC(=O)[C@H](CO)NC(=O)[C@@H](NC(=O)[C@](C)(Cc1ccccc1)NC(=O)[C@H](CO)NC(=O)CNC(=O)[C@H](CCC(=O)O)NC(=O)C(C)(C)NC(=O)[C@@H](N)Cc1c[nH]cn1)[C@@H](C)O)C(C)C)C(=O)N[C@@H](C)C(=O)N[C@@](C)(Cc1ccccc1)C(=O)N[C@H](C(=O)N[C@H](C(=O)N[C@@](C)(CCCCN)C(=O)NCC(=O)NCC(N)=O)C(C)C)C(C)C [compound 161]
64	18	40.9	≥ 27	≥ 27	≥ 27	≥ 27	–	–	–	–	–	–	–	CCCCCCCCCCCCCCCCCC(=O)N[C@@H](CCC(=O)N[C@@H](CCC(=O)NCCCC[C@H](NC(=O)[C@@H](NC(=O)[C@@H](NC(=O)[C@](C)(Cc1ccccc1)NC(=O)[C@H](C)NC(=O)[C@@H](NC(=O)[C@](C)(Cc1ccccc1)NC(=O)[C@H](CCC(=O)O)NC(=O)[C@](C)(CCCCN)NC(=O)[C@H](C)NC(=O)[C@H](C)NC(=O)[C@H](CCC(=O)O)NC(=O)CNC(=O)[C@H](CCC(=O)O)NC(=O)[C@H](CC(C)C)NC(=O)[C@](C)(Cc1ccccc1)NC(=O)[C@H](CO)NC(=O)[C@](C)(CO)NC(=O)[C@@H](NC(=O)[C@H](CC(=O)O)NC(=O)[C@H](CO)NC(=O)[C@@H](NC(=O)[C@](C)(Cc1ccccc1)NC(=O)[C@H](CO)NC(=O)CNC(=O)[C@H](CCC(=O)O)NC(=O)C(C)(C)NC(=O)[C@@H](N)Cc1c[nH]cn1)[C@@H](C)O)C(C)C)[C@@H](C)CC)C(C)C)C(C)C)C(=O)NCC(=O)NCC(N)=O)C(=O)O)C(=O)O [compound 183]
